Laboratory results reported in patent US20230407243A1, “GENETIC PLATFORM TO INVESTIGATE THE FUNCTIONS OF BACTERIAL DRUG EFFLUX PUMPS” (priority 2022, published 2023).
Read-outs that look alike come from different tables or passages of the source.

Legend:
Type in all cases: cell-based, Escherichia coli
[1] = test system: EKO-35 strains producing different efflux pumps (EKO-35 araC::X); experiment: Checkerboard synergy (FICI) of PAβN or NMP with antibiotics
In short: (§1)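 Checkerboard broth microdilution per CLSI in MHB II, inocula by colony resuspension; MIC taken as lowest concentration with no growth by OD600. FICI = (CA/MICA)+(CB/MICB), drug A being PAβN or NMP and drug B the antibiotic; synergy <0.5, additive >0.5–1.0, indifferent >1.0–2.0, antagonism >2.0.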

ΔtolC = test system: ΔtolC
In short: as §1

EKO-35 acrBD408A = test system: EKO-35 acrBD408A
In short: as §1

ΔtolC-Pore = test system: ΔtolC-Pore
In short: as §1

wild-type E. coli K-12 = test system: wild-type E. coli K-12
In short: as §1

EKO-35 = test system: EKO-35
In short: as §1

[2] = test system: EKO-35-Pore acrBD408A (functionally inactive AcrB variant); experiment: Checkerboard synergy (FICI), porinated strain
In short: as §1

[3] = test system: EKO-35 porinated strain expressing acrB; experiment: Checkerboard synergy (FICI), porinated strain
In short: as §1

[4] = EKO-35 acrEF, PAβN + antibiotic
[5] = strain EKO-35 acrD, NMP + antibiotic
[6] = EKO-35 acrBD408A, PAβN + antibiotic
[7] = strain EKO-35 acrBD408A, NMP + antibiotic
[8] = strain ΔtolC Pore, NMP + antibiotic
[9] = strain EKO-35, NMP + antibiotic
[10] = strain EKO-35 acrBD408A Pore, NMP + antibiotic
[11] = EKO-35 acrB Pore, NMP + antibiotic
[12] = strain EKO-35 acrB Pore, NMP + antibiotic

For Cc1onc(-c2ccccc2)c1C(=O)N[C@@H]1C(=O)N2[C@@H]1SC(C)(C)[C@@H]2C(=O)O [oxacillin], the Effect ([1]; EKO-35 acrB, NMP + antibiotic) was “Additive”, the Effect ([1]; EKO-35 acrB, PAβN + antibiotic) was “Synergistic” and the FICI ([1]; EKO-35 acrB, PAβN + antibiotic) was 0.125. For the same molecule, the “MICb Alone” value ([1]; EKO-35 acrB, antibiotic alone (PAβN checkerboard)) was 1024 µg/mL, the “MICb Combined” value ([1]; EKO-35 acrB, antibiotic in combination with PAβN) was 64 µg/mL and the Effect ([1]; EKO-35 acrD, NMP + antibiotic) was “Additive”. The FICI ([1]; EKO-35 acrD, NMP + antibiotic) was 0.750, the Effect ([1]; EKO-35 acrD, PAβN + antibiotic) was “Synergistic” and the FICI ([1]; EKO-35 acrD, PAβN + antibiotic) was 0.156. For the same molecule, the “MICb Combined” value ([1]; EKO-35 acrD, antibiotic in combination with PAβN) was 16 µg/mL, the Effect ([1]; EKO-35 acrEF, NMP + antibiotic) was “Synergistic” and the Effect [1, 4] was “Synergistic”. For the same molecule, the FICI [1, 4] was 0.133, the “MICb Alone” value ([1]; EKO-35 acrEF, antibiotic alone (PAβN checkerboard)) was 256 µg/mL and the “MICb Combined” value ([1]; EKO-35 acrEF, antibiotic in combination with PAβN) was 2 µg/mL. The Effect ([1]; strain EKO-35 acrB, NMP + antibiotic) was “Additive (additive (FICI >0.5-1.0))”, the “MICb Combined” value ([1]; strain EKO-35 acrB, antibiotic in combination with NMP) was 16 µg/mL and the Effect [1, 5] was “Additive (additive (FICI >0.5-1.0))”. For the same molecule, the FICI [1, 5] was 0.750, the “MICb Combined” value ([1]; strain EKO-35 acrD, antibiotic in combination with NMP) was 32 µg/mL and the Effect ([1]; strain EKO-35 acrEF, NMP + antibiotic) was “Synergistic (Synergy (FICI ≤0.5))”. For the same molecule, the “MICb Alone” value ([1]; strain EKO-35 acrEF, antibiotic alone) was 256 µg/mL, the “MICb Combined” value ([1]; strain EKO-35 acrEF, antibiotic in combination with NMP) was 64 µg/mL and the Effect (ΔtolC; strain ΔtolC, NMP + antibiotic) was “Additive (additive (FICI >0.5-1.0))”. For the same molecule, the FICI (ΔtolC; strain ΔtolC, NMP + antibiotic) was 0.531, the “MICb Alone” value (ΔtolC; strain ΔtolC, antibiotic alone) was 1 µg/mL and the “MICb Combined” value (ΔtolC; strain ΔtolC, antibiotic in combination with NMP) was 0.5 µg/mL. For the same molecule, the Effect (ΔtolC; ΔtolC, NMP + antibiotic) was “Additive”, the FICI (ΔtolC; ΔtolC, NMP + antibiotic) was 0.531 and the Effect (ΔtolC; ΔtolC, PAβN + antibiotic) was “Synergistic”. For the same molecule, the FICI (ΔtolC; ΔtolC, PAβN + antibiotic) was 0.313, the “MICb Alone” value (ΔtolC; ΔtolC, antibiotic alone (PAβN checkerboard)) was 1 µg/mL and the “MICb Combined” value (ΔtolC; ΔtolC, antibiotic in combination with PAβN) was 0.25 µg/mL. For the same molecule, the FICI (EKO-35 acrBD408A; EKO-35 acrBD408A, NMP + antibiotic) was 2.000, the Effect (EKO-35 acrBD408A; [6]) was “Synergistic” and the FICI (EKO-35 acrBD408A; [6]) was 0.185. The “MICb Alone” value (EKO-35 acrBD408A; EKO-35 acrBD408A, antibiotic alone (PAβN checkerboard)) was 1 µg/mL, the “MICb Combined” value (EKO-35 acrBD408A; EKO-35 acrBD408A, antibiotic in combination with PAβN) was 0.06 µg/mL and the Effect (EKO-35 acrBD408A; [7]) was “— (indifferent (FICI >1.0))”. For the same molecule, the FICI (EKO-35 acrBD408A; [7]) was 2.000, the “MICb Alone” value (EKO-35 acrBD408A; strain EKO-35 acrBD408A, antibiotic alone) was 0.13 µg/mL and the “MICb Combined” value (EKO-35 acrBD408A; strain EKO-35 acrBD408A, antibiotic in combination with NMP) was 0.13 µg/mL. For the same molecule, the Effect (ΔtolC-Pore; [8]) was “Additive (additive (FICI >0.5-1.0))”, the FICI (ΔtolC-Pore; [8]) was 0.531 and the “MICb Alone” value (ΔtolC-Pore; strain ΔtolC Pore, antibiotic alone) was 1 µg/mL. For the same molecule, the “MICb Combined” value (ΔtolC-Pore; strain ΔtolC Pore, antibiotic in combination with NMP) was 0.5 µg/mL, the Effect (ΔtolC-Pore; ΔtolC Pore, NMP + antibiotic) was “Additive” and the FICI (ΔtolC-Pore; ΔtolC Pore, NMP + antibiotic) was 0.531. For the same molecule, the Effect (ΔtolC-Pore; ΔtolC Pore, PAβN + antibiotic) was “Additive”, the FICI (ΔtolC-Pore; ΔtolC Pore, PAβN + antibiotic) was 0.740 and the “MICb Alone” value (ΔtolC-Pore; ΔtolC Pore, antibiotic alone (PAβN checkerboard)) was 0.25 µg/mL. For the same molecule, the “MICb Combined” value (ΔtolC-Pore; ΔtolC Pore, antibiotic in combination with PAβN) was 0.06 µg/mL, the Effect (wild-type E. coli K-12; K-12, NMP + antibiotic) was “Synergistic” and the FICI (wild-type E. coli K-12; K-12, NMP + antibiotic) was 0.375. The Effect (wild-type E. coli K-12; K-12, PAβN + antibiotic) was “Synergistic”, the FICI (wild-type E. coli K-12; K-12, PAβN + antibiotic) was 0.188 and the “MICb Alone” value (wild-type E. coli K-12; K-12, antibiotic alone (PAβN checkerboard)) was 512 µg/mL. The “MICb Combined” value (wild-type E. coli K-12; K-12, antibiotic in combination with PAβN) was 32 µg/mL, the Effect (wild-type E. coli K-12; strain K-12, NMP + antibiotic) was “Synergistic (Synergy (FICI ≤0.5))” and the FICI (wild-type E. coli K-12; strain K-12, NMP + antibiotic) was 0.375. For the same molecule, the “MICb Alone” value (wild-type E. coli K-12; strain K-12, antibiotic alone) was 512 µg/mL, the Effect (EKO-35; EKO-35, NMP + antibiotic) was “Additive” and the FICI (EKO-35; EKO-35, NMP + antibiotic) was 0.510. The Effect (EKO-35; EKO-35, PAβN + antibiotic) was “Synergistic”, the FICI (EKO-35; EKO-35, PAβN + antibiotic) was 0.323 and the “MICb Alone” value (EKO-35; EKO-35, antibiotic alone (PAβN checkerboard)) was 0.5 µg/mL. For the same molecule, the “MICb Combined” value (EKO-35; EKO-35, antibiotic in combination with PAβN) was 0.13 µg/mL, the “interaction of PAβN in combination with the labelled antibiotic (FICI)” value (EKO-35; efflux-deficient strains EKO-35, EKO-35 acrBD408A, ΔtolC) was “synergized” and the Effect (EKO-35; [9]) was “Additive (additive (FICI >0.5-1.0))”. The FICI (EKO-35; [9]) was 0.510, the “MICb Alone” value (EKO-35; strain EKO-35, antibiotic alone) was 0.5 µg/mL and the “MICb Combined” value (EKO-35; strain EKO-35, antibiotic in combination with NMP) was 0.13 µg/mL. The FICI ([2]; EKO-35 acrBD408A Pore, NMP + antibiotic) was 2.000, the FICI ([2]; EKO-35 acrBD408A Pore, PAβN + antibiotic) was 1.020 and the “MICb Alone” value ([2]; EKO-35 acrBD408A Pore, antibiotic alone (PAβN checkerboard)) was 0.25 µg/mL. The “MICb Combined” value ([2]; EKO-35 acrBD408A Pore, antibiotic in combination with PAβN) was 0.13 µg/mL, the Effect [2, 10] was “— (indifferent (FICI >1.0))” and the FICI [2, 10] was 2.000. The “MICb Alone” value ([2]; strain EKO-35 acrBD408A Pore, antibiotic alone) was 0.13 µg/mL, the “MICb Combined” value ([2]; strain EKO-35 acrBD408A Pore, antibiotic in combination with NMP) was 0.13 µg/mL and the Effect [3, 11] was “Synergistic”. For the same molecule, the FICI [3, 11] was 0.500, the Effect ([3]; EKO-35 acrB Pore, PAβN + antibiotic) was “Synergistic” and the “MICb Combined” value ([3]; EKO-35 acrB Pore, antibiotic in combination with PAβN) was 16 µg/mL. For the same molecule, the “potentiation of the labelled compound by NMP” value ([3]; porinated strain producing AcrB) was “enhancing the activity”, the Effect [3, 12] was “Synergistic (Synergy (FICI ≤0.5))” and the FICI [3, 12] was 0.500. For the same molecule, the “MICb Alone” value ([3]; strain EKO-35 acrB Pore, antibiotic alone) was 64 µg/mL and the “MICb Combined” value ([3]; strain EKO-35 acrB Pore, antibiotic in combination with NMP) was 16 µg/mL.
